From patent EP1258527A1, “Membrane-associated shingomyelinase derived from bovine brain, isolation method therfor and anti-sphingomyelinase monocional antibody” (SK Corporation, priority 2001, dated 2002)
Entries after “also recorded” stand apart in the source; their conditions may differ. Where two headings read alike, the source gives them in different places.

Tests used:
[1] = tested on: partially purified N-mSMase; details: partially purified rat brain N-mSMase (Liu et al.); cited from earlier work
N-mSMase ε = test: N-mSMase activity assay: influence of cations, reducing agents and surfactants on enzyme activity; type: biochemical, bovine; details: for influence of reducing agents on N-mSMase ε activity: 0.5-10 mM, relative to control without reducing agent; for influence of agents similar to glutathione on N-mSMase ε activity: 1, 3, 5 or 10 mM; for inhibition of activity at 10 mM: glutathione concentration of 10 mM
Protocol: (§1) After being dried with a nitrogen stream, [N-methyl-^14 C]sphingomyelin (choline residue labeled with ^14C) was suspended in ethanol. 10 µl of a sample was mixed with 100 µl of a reaction solution (10 mM MgSO4, 50 µM [N-methyl-^14 C]sphingomyelin (c.a. 60,000 cpm), 2 mM sodium deoxycholate, 100 mM Tris-HCl (pH 7.0)) and incubated at 37 °C for 30 min. Addition of 320 µl of a mixture of chloroform/methanol (1:1 volume ratio) and 30 µl of 2N hydrochloride stopped the reaction. After vortexing and centrifuging the resulting mixture at 10,000xg, 200 µl of the aqueous layer was mixed with 2.5 ml of a scintillation cocktail, such as that manufactured by Packard Instrument Co., U.S.A., identified as "Insta gel-XF", followed by measuring the radioactivity with the aid of a Packard Tricarb liquid β-scintillation counter.
(§2) Separately, the same Lineweaver-Burk analysis was carried out, but in the presence of 0.4, 1.0 and 2.0 mM sodium deoxycholate.
In order to examine the dependency of N-mSMase ε activity on Mg^2+, Fraction B obtained in Step 6 of Example 1 was desalted by being applied to a PD-10 column (Sephadex G-25, Pharmacia Biotechnology Co., Sweden). For use, the column was equilibrated twice with distilled water, in advance. The desalted protein fraction (corresponding to protein 10 ng) was measured for N-mSMase ε activity in the presence of 1, 5, 10 and 25 mM of MgCl2 in the manner described in Experimental Example 1.
An examination was made of the influence of other cations, such as Ca^2+, Fe^3+, Fe^2+, Zn^2+, Cu^2+ and […] on the activity of N-mSMase ε. To a solution containing the desalted protein fraction (corresponding to protein 10 ng) obtained in C and 5 mM MgCl2, CaCl2, FeCl3, FeCl2, ZnCl2 or CuCl2 was added to yield a final concentration of 0.01, 0.02, 0.05, 0.1, 0.25 or 0.5 mM, followed by the measurement of N-mSMase ε activity in accordance with the procedure of Experimental Example 1.
After the addition of 10 µl of [N-methyl-^14C]sphingomyelin, the N-mSMase activity was measured according to the procedure of Experimental Example 1. For comparison, a Tris-HCl buffer containing no reducing agents was used as a control. The N-mSMase ε activity influenced by the reducing agents was expressed as a percentage relative to the control.
After being treated with 1, 3, 5 or 10 mM of GSSG, cystein, cystein-glycine or γ-glutaric acid-cystein, the activity of N-mSMase ε was measured in the same manner.
Sodium deoxycholate and Triton X-100 were selected as surfactants to be tested. The protein fraction obtained in C (corresponding to 10 ng of protein) was measured for N-mSMase ε activity in reaction solutions containing 0.5, 1, 2 and 5 mM of sodium deoxycholate, respectively, in accordance with the procedure of Experimental Example 1. In the case of Triton X-100, it was prepared at concentrations of 0.05, 0.01, 0.5 and 0.1 %.

[2] = tested on: N-mSMase ε, membrane-associated, Mg^2+-dependent, neutral pH optimum sphingomyelinase (60 kDa) from bovine brain; test: Lineweaver-Burk kinetic analysis (N-mSMase activity assay); type: biochemical
Protocol: as §1
The N-mSMase ε prepared in Step 6 of Example 1 was subjected to Lineweaver-Burk analysis. In this regard, enzyme N-mSMase ε was used at amounts of 10 ng or less with the substrate sphingomyelin varying, in concentration, from 6.25 to 100 µM.
as §2

[3] = cation chloride added at 0.01-0.5 mM in the presence of 5 mM MgCl2, read-out: IC50 (inhibition of enzyme activity, hydrolysis of sphingomyelin)

For O[C@H](CS)[C@H](O)CS (racemic) [DTT, dithiothreitol], the “effect on activity of partially purified N-mSMase” value [1] is given as “promoted”, the “influence of reducing agents on N-mSMase ε activity” value (“influence of reducing agents” below) (N-mSMase ε) is given as “not inhibited” and the “influence of reducing agents” value (N-mSMase ε; listed as dithiothreitol) is given as “neither dithiothreitol nor 2-mercaptoethanol has any influence”.

With OCCS [2-mercaptoethanol] the “influence of reducing agents” value (N-mSMase ε) was “not inhibited; also recorded: neither dithiothreitol nor 2-mercaptoethanol has any influence”.

For [Ca+2].[Cl-].[Cl-] [Ca^2+, CaCl2], the “influence on the activity of N-mSMase ε” value (N-mSMase ε; concentration of 0.5 mM or less, 5 mM MgCl2) was “no influence”.

With [Cl][Cu][Cl] [Cu^2+, CuCl2] the IC50 (N-mSMase ε; [3]) was 28 µM.

With [Cl-].[Cl-].[Mg+2] [Mg^2+, MgCl2] the “dependency of N-mSMase ε activity on Mg^2+” value (N-mSMase ε; 1, 5, 10 and 25 mM MgCl2, desalted fraction) was “Mg^2+-concentration dependent”.

With [Cl-].[Cl-].[Zn+2] [Zn^2+, ZnCl2] the IC50 (N-mSMase ε; [3]) was 32 µM.

With N[C@@H](CS)C(=O)O [cystein] the “influence of agents similar to glutathione on N-mSMase ε activity” value (from here on “influence of agents similar”) (N-mSMase ε) was “inhibited; also recorded: reduction in the activity”.

In the case of N[C@@H](CCC(=O)N[C@@H](CS)C(=O)NCC(=O)O)C(=O)O [glutathione], the IC50 (N-mSMase ε; glutathione 0.5-10 mM, preincubation 37 °C 10 min, read-out: IC50 (inhibition of sphingomyelinase activity)) is reported as 8000 µM, the “inhibition of activity at 10 mM” value (N-mSMase ε) is reported as “completely inhibited” and the “inhibition of activity at 10 mM” value (N-mSMase ε; listed as Glutathione) is reported as “fully inhibited”. For the same compound, the “change of activity with concentration up to 3 mM” value (N-mSMase ε; glutathione up to 3 mM) was “increases”.

In the case of N[C@@H](CCC(=O)N[C@@H](CS)C(=O)O)C(=O)O [γ-glutaric acid-cystein], the “influence of agents similar” value (N-mSMase ε) is reported as “inhibited; also recorded: reduction in the activity”.

For oxidized glutathione [GSSG], the “influence of agents similar” value (N-mSMase ε) was “inhibited; also recorded: reduction in the activity”.

For phosphatidylserine, the “effect on activity of partially purified N-mSMase” value [1] is given as “promoted”.

With sodium deoxycholate the “effect on Km value of N-mSMase ε” value (N-mSMase ε; Lineweaver-Burk analysis in the presence of 0.4, 1.0 and 2.0 mM sodium deoxycholate) was “could not change”.

In the case of sphingomyelin, the Km ([2]; substrate sphingomyelin 6.25 to 100 µM, enzyme 10 ng or less, absence of surfactants) is reported as 47 µM and the “Km value in the presence of sodium deoxycholate” value ([2]; substrate sphingomyelin, 0.4, 1.0 and 2.0 mM sodium deoxycholate) is reported as “could not change”.
